Each block holds one compound with its values, some of them ahead of it.
How the values were obtained:
[1] = system: 95 different cancer cell lines; test: Proliferation assay on a panel of cancer cell lines; type: cell-based
Axl = molecular target: T1, Axl (Homo sapiens, UniProt P30530); test: Tracer-based kinase binding assay
T1 sequence (P30530 26-894): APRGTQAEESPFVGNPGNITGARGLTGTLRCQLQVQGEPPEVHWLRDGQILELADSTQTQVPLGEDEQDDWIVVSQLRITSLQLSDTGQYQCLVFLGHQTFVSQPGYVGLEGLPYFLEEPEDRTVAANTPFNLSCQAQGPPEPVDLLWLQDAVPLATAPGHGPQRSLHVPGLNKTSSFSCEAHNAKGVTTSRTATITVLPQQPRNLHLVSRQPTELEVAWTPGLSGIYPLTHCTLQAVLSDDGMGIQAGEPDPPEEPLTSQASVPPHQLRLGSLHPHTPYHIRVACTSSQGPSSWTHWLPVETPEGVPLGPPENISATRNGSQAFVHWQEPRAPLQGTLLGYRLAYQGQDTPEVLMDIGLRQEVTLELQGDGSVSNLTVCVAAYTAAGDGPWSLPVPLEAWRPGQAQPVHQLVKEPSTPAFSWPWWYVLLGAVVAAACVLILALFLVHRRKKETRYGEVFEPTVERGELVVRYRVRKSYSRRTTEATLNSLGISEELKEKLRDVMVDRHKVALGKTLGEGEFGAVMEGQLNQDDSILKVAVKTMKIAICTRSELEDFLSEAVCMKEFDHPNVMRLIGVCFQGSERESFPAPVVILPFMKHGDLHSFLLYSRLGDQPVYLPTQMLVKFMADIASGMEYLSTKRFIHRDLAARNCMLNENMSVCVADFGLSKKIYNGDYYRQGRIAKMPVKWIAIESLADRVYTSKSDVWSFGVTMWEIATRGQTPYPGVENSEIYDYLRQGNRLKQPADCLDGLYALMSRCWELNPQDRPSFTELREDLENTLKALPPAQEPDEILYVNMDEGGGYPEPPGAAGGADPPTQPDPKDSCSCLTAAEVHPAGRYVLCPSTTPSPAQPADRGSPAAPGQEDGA

[2] = Prothrombine time and bleeding in warfarin-treated mice
RMA-Rae1 cells = test: In vivo NK cell cytotoxicity towards RMA-Rae1 cells; conditions: warfarin, Cbl-b+/+ mice treated for 7 days before inoculation
RMA-S cells = test: In vivo NK cell cytotoxicity towards RMA-S cells; conditions: Cbl-b+/+ mice treated for 7 days before inoculation
B16F10 melanoma = test: B16F10 metastatic melanoma model, low dose warfarin in drinking water; type: in vivo, mice; conditions: for melanoma metastases to the lungs and distal organs: low dose warfarin 0.5mg/l in drinking water

IC50 ([1]; read-out: IC50 proliferation, non-specific kinase inhibitors): < 100 nM
SMILES: Cc1nc(Nc2ncc(C(=O)Nc3c(C)cccc3Cl)s2)cc(N2CCN(CCO)CC2)n1 [dasatinib]

prothrombine time / coagulopathy ([2]; 0.5mg/l in drinking water for 21 days): does not cause a coagulopathy
SMILES: CC(=O)CC(c1ccccc1)c1c(O)c2ccccc2oc1=O (stereo not drawn) [warfarin]
bleeding ([2]; warfarin-treated mice compared to vehicle controls): never observed neither spontaneous nor excessive bleeding | in vivo NK cell cytotoxicity towards RMA-Rae1 (RMA-Rae1 cells): enhanced in vivo NK cell cytotoxicity | in vivo NK cell cytotoxicity towards RMA-S (RMA-S cells): enhanced in vivo NK cell cytotoxicity | melanoma metastases to the lungs and distal organs (B16F10 melanoma; Cbl-b defective mice): had no apparent effect | melanoma metastases to the lungs and distal organs (B16F10 melanoma; Cbl-b+/+ and Cbl-b+/- mice, day +16): markedly reduced melanoma metastases | metastatic melanomas (B16F10 melanoma; low dose warfarin, absence of NK1.1+ cells): abolished the effects of warfarin

inhibitory activity of reference compounds in the Axl HTRF assay (Axl): showed inhibitory activities as expected
SMILES: CCN(CC)CCNC(=O)c1c(C)[nH]c(/C=C2\C(=O)Nc3ccc(F)cc32)c1C [sunitinib]

inhibitory activity of reference compounds in the Axl HTRF assay (Axl): showed inhibitory activities as expected
SMILES: CCOc1ccn(-c2ccc(F)cc2)c(=O)c1C(=O)Nc1ccc(Oc2ccnc(N)c2Cl)c(F)c1 [BMS-777607/ASLAN002]

The next lines start with the compound.

SMILES: CN[C@@H]1C[C@H]2O[C@@](C)([C@@H]1OC)n1c3ccccc3c3c4c(c5c6ccccc6n2c5c31)C(=O)NC4 [staurosporine]
inhibitory activity of reference compounds in the Axl HTRF assay (Axl): showed inhibitory activities as expected

SMILES: Cc1ccc(NC(=O)c2ccc(CN3CCN(C)CC3)cc2)cc1Nc1nccc(-c2cccnc2)n1 [imatinib]
proliferation inhibition profile, specific kinase blockers ([1]; same panel, e.g. K562 cells): inhibit proliferation of only a few cell lines

Source: article PMC6258903 (Nature, 2014)
